SMILES strings stand for the structures. pIC50: −log10 of the molar value.

Experiment [1] deals with T1, ACLY (Homo sapiens (Human), UniProt P53396). In words: Human ACLY (hACLY) RF/MS activity assay. The class given is biochemical. Conditions: 1 nM hACLY; 30 min pre-incubation; 15 μM Coenzyme A, 50 μM ATP, 50 μM citrate; CoA to Acetyl-CoA by RF/MS; read-out: RFMS IC50 GMean. As to the method: Compounds of the disclosure were evaluated for their efficacy in inhibiting hACLY using rapid fire mass spectrometry (RF/MS).
The final reaction volume for each compound was 20 μl and consisted of buffer (50 mM Hepes pH 8.0, 10 mM MgCl2, 0.003% BSA, 0.01% Brij35, 50 mM NaCl, 4 mM DTT) and 1 nM hACLY, EV12992, PP6692) using Greiner, 384 well small volume, deep well plates (Cat #784201). A two-fold dilution series with a top concentration of 10 μM was used to record a concentration response curve. Both the substrate (CoA) and product (Acetyl-CoA) were quantified, and given a ratio. […] The final DMSO-concentration was 1% (v/v). Compounds were pre-incubated for 30 min with the buffered enzyme solution at RT (20° C.), and substrate solution was added (final concentrations: 15 μM Coenzyme A, 50 μM ATP and 50 μM citrate) to initiate the enzyme reaction. The enzyme reaction was incubated for additional 30 min at RT. The reaction was quenched upon addition of 40 μl of 5% Formic acid in H2O and centrifuged (4350 rpm at 20° C. for 10 min).
Product formation was quantified using a RF/MS-based method based on mass change of CoA (substrate) to Acetyl-CoA (product).

The target in experiment [2] is T1, ACLY. In words: InCell Pulse assay (permeate HEK293 cells, bind to and stabilize ACLY). It counts as cell-based. Conditions: HEK293 cells transfected with pICP-ACLY(FL)-ePL; 1 hour at 37° C., 55° C. heat pulse 10 minutes; read-out: InCell Pulse IC50 GMean. On the procedure: HEK293 cells transfected for 24 hours with pICP-ACLY(FL)-ePL (3 μg DNA per T25 flask) using FuGene HD (Promega Corp.) were harvested and cryopreserved. On the day of the assay, the frozen transfected cells were thawed at 37° C., and the storage medium (DMEM with 2 mM L-Glutamine, 10% FBS and a final concentration of DMSO 10%) was exchanged with assay medium (OptiMEM; Gibco™, ThermoFischer Scientific). Compounds were 3-fold serially diluted in DMSO over 11-point concentration range. 100 nL of the corresponding dilutions were spotted into the assay plate (Greiner AG; 384 Well, PP, Small Volume, Deep Well, Natural, cat. no. 784201) followed by the addition of 20 μL of cell suspension adjusted with assay medium to 7.5E4 cells/mL. Subsequently, the plates were sealed and incubated for 1 hour at 37° C. Afterwards, the plates were fixed upside down in a rack and incubated in a 55° C. water bath for 10 minutes. Following this heat pulse step, plates were allowed to reach room temperature for 10 minutes and centrifuged for a few seconds at 1000 rpm and room temperature. 25 μL EA detection solution (working solution: 0.0167× InCell EA Reagent, 0.15× InCell Dilution Buffer, 0.167× InCell Lysis Buffer; 0.667× InCell Substrate Reagent; InCell Hunter Detection kit; Eurofins DiscoverX; cat. no. 96-0079) were added to each well. Afterwards, 42 μL were transferred from the assay plate to the detection plate (Corning Inc., 384-well Low Flange Black Flat Bottom Polystyrene NBS Microplate, cat. no. 3575), followed by an incubation for 1 hour at room temperature, a centrifugation step for 1 minute at 1000 rpm and the detection of the luminescence signal using an EnVision microplate reader (Perkin Elmer Inc.). Concentration-response curve-fitting and IC50 determination was performed using Evotec's in-house evaluation software APlus with a four-parameter non-linear regression fit model. Data was normalized to 0.5% (final concentration) DMSO as low/negative control and 1 μM (final concentration) NDI-094311 as high/positive control.

T1 sequence (P53396 whole entry): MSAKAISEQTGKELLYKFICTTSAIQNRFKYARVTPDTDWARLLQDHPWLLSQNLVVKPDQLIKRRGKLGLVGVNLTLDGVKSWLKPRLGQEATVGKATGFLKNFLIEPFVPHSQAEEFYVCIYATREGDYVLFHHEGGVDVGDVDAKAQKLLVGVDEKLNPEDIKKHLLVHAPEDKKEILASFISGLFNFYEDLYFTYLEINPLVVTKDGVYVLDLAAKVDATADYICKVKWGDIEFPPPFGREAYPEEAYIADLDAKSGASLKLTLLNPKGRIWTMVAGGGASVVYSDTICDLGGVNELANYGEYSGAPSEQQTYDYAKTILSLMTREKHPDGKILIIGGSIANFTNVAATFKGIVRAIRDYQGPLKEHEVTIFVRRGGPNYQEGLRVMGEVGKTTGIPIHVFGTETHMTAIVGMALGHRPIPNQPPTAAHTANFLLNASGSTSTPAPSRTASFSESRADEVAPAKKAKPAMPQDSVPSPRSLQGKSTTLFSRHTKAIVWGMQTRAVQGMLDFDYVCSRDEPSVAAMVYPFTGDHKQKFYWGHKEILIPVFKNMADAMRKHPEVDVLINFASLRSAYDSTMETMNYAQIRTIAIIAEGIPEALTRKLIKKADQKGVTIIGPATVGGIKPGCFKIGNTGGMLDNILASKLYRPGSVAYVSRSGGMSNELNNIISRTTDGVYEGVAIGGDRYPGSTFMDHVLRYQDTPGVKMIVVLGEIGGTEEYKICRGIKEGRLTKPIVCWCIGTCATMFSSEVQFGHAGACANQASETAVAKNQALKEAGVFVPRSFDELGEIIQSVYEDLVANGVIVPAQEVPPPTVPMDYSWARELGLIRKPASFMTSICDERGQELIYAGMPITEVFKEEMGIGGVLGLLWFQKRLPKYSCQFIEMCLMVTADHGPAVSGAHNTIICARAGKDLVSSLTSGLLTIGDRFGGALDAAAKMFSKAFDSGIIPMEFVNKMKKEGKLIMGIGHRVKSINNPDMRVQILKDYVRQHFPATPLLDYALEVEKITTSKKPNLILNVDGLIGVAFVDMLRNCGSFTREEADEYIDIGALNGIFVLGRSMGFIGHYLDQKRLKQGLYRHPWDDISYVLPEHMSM

As usually defined, the pIC50 is the negative decadic logarithm of the IC50, by convention in mol/L. As for `Cn1cc2cc(c1=O)S(=O)(=O)Nc1cc(c(F)cc1F)-c1ccccc1OCCOC2=O` [Compound 35, 21,23-difluoro-15-methyl-18,18-dioxo-8,11-dioxa-18λ6-thia-15,19-diazatetracyclo[18.3.1.113,17.02,7]pentacosa-1(23),2(7),3,5,13,17(25),20(24),21-octaene-12,16-dione], the pIC50 is no more than 5.00 at ACLY [1] and no more than 4.30 at ACLY [2].

As for `O=C1OCCc2cc(F)ccc2-c2ccc(F)c(c2)NS(=O)(=O)c2cc1cc(Cl)c2O` [Compound 73, 14-chloro-5,20-difluoro-15-hydroxy-17,17-dioxo-10-oxa-17λ6-thia-18-azatetracyclo[17.3.1.112,16.02,7]tetracosa-1(22),2(7),3,5,12,14,16(24),19(23),20-nonaen-11-one], the pIC50 at ACLY [1] was 7.00 to 7.70; at ACLY [2], greater than 6.52.

For `O=C1OCCc2ccccc2-c2ccc(F)c(c2)NS(=O)(=O)c2cc1cc(Cl)c2O` [Compound 72, 14-chloro-20-fluoro-15-hydroxy-17,17-dioxo-10-oxa-17λ6-thia-18-azatetracyclo[17.3.1.112,16.02,7]tetracosa-1(22),2(7),3,5,12,14,16(24),19(23),20-nonaen-11-one], the pIC50 was greater than 7.70 on ACLY [1] and greater than 6.52 at ACLY [2].

Turning to `O=C1OCCOc2ccc(Cl)cc2-c2ccc(F)c(c2)NS(=O)(=O)c2cc1cc(Cl)c2O` [Compound 52, 4,15-dichloro-21-fluoro-16-hydroxy-18,18-dioxo-8,11-dioxa-18λ6-thia-19-azatetracyclo[18.3.1.113,17.02,7]pentacosa-1(23),2(7),3,5,13,15,17(25),20(24),21-nonaen-12-one], the pIC50 on ACLY [1] is 7.00 to 7.70; at ACLY [2], 6.00 to 6.52.

In the case of `O=C1NCCc2ccccc2-c2cc(c(F)cc2F)NS(=O)(=O)c2cc1cc(Cl)c2O` [Compound 30, 14-chloro-20,22-difluoro-15-hydroxy-17lambda6-thia-10,18-diazatetracyclo[17.3.1.1^12,16.0^2,7]tetracosa-1(23),2,4,6,12,14,16(24),19,21-nonaene-11,17,17-trione], the results for the pIC50 at ACLY [1] and at ACLY [2] were 7.00 to 7.70 and 4.30 to 6.00, respectively.

With `O=C1OCCOc2ccc(C3CC3)cc2-c2cc(c(F)cc2F)NS(=O)(=O)c2cc1cc(Cl)c2O` [Compound 31, 15-chloro-4-cyclopropyl-21,23-difluoro-16-hydroxy-8,11-dioxa-18lambda6-thia-19-azatetracyclo[18.3.1.1^13,17.0^2,7]pentacosa-1(23),2,4,6,13(25),14,16,20(24),21-nonaene-12,18,18-trione], the pIC50 on ACLY [1] is 5.00 to 7.00; at ACLY [2] it was 4.30 to 6.00.

On to `N#Cc1ccc2c(c1)-c1cc(c(F)cc1F)NS(=O)(=O)c1cc(cc(Cl)c1O)C(=O)OC2` [Compound 86, 13-chloro-19,21-difluoro-14-hydroxy-10,16,16-trioxo-9-oxa-16λ6-thia-17-azatetracyclo[16.3.1.111,15.02,7]tricosa-1(21),2,4,6,11(23),12,14,18(22),19-nonaene-4-carbonitrile], for which the pIC50 at ACLY [1] is 5.00 to 7.00; at ACLY [2] it was 6.00 to 6.52.

For the compound `O=C1OCc2ccccc2-c2ccc(F)c(c2)NS(=O)(=O)c2cc1cc(Cl)c2O` [Compound 84, 13-chloro-19-fluoro-14-hydroxy-16,16-dioxo-9-oxa-16λ6-thia-17-azatetracyclo[16.3.1.111,15.02,7]tricosa-1(21),2(7),3,5,11(23),12,14,18(22),19-nonaen-10-one], the negative-log IC50 (pIC50) on ACLY [1] was 5.00 to 7.00; at ACLY [2], greater than 6.52.

Consider `O=C1OCCOc2ccc(F)cc2-c2ccc(F)c(c2)NS(=O)(=O)c2cc1cc(Cl)c2O` [Compound 46, 15-chloro-4,21-difluoro-16-hydroxy-18,18-dioxo-8,11-dioxa-18λ6-thia-19-azatetracyclo[18.3.1.113,17.02,7]pentacosa-1(23),2(7),3,5,13,15,17(25),20(24),21-nonaen-12-one], for which the pIC50 on ACLY [1] is greater than 7.70; on ACLY [2], greater than 6.52.

Take `O=C1OCCCn2c(cc3ccccc32)-c2cc(c(F)cc2F)NS(=O)(=O)c2cc1cc(Cl)c2O` [Compound 27, 18-chloro-24,26-difluoro-19-hydroxy-14-oxa-21lambda6-thia-10,22-diazapentacyclo[21.3.1.1^16,20.0^2,10.0^4,9]octacosa-1(27),2,4,6,8,16,18,20(28),23,25-decaene-15,21,21-trione]: the pIC50 on ACLY [1] was 7.00 to 7.70; at ACLY [2], no more than 4.30.

For the compound `O=C1OCCOc2ccccc2-c2cc(c(F)cc2F)NS(=O)(=O)c2cc1cc(Cl)n2` [Compound 61, 15-chloro-21,23-difluoro-18,18-dioxo-8,11-dioxa-18λ6-thia-16,19-diazatetracyclo[18.3.1.113,17.02,7]pentacosa-1(24),2,4,6,13,15,17(25),20,22-nonaen-12-one], the pIC50 was no more than 5.00 at ACLY [1] and no more than 4.30 at ACLY [2].

On to `O=C1OCCOc2ccccc2-c2cc(c(F)cc2F)NS(=O)(=O)c2cc(O)cc1c2` [Compound 65, 21,23-difluoro-15-hydroxy-18,18-dioxo-8,11-dioxa-18λ6-thia-19-azatetracyclo[18.3.1.113,17.02,7]pentacosa-1(24),2,4,6,13,15,17(25),20,22-nonaen-12-one], for which the pIC50 is no more than 5.00 on ACLY [1] and no more than 4.30 at ACLY [2].

Turning to `N#Cc1ccc2c(c1)COC(=O)c1cc(Cl)c(O)c(c1)S(=O)(=O)Nc1cc-2c(F)cc1F` [Compound 85, 13-chloro-19,21-difluoro-14-hydroxy-10,16,16-trioxo-9-oxa-16λ6-thia-17-azatetracyclo[16.3.1.111,15.02,7]tricosa-1(21),2(7),3,5,11,13,15(23),18(22),19-nonaene-5-carbonitrile], the values for the pIC50 at ACLY [1] and at ACLY [2] were greater than 7.70 and no more than 4.30, respectively.

Take `O=C1OCCOc2ccccc2-c2cc(c(F)cc2F)NS(=O)(=O)c2cc1cc(=O)[nH]2` [Compound 38, 21,23-difluoro-18,18-dioxo-8,11-dioxa-18λ6-thia-16,19-diazatetracyclo[18.3.1.113,17.02,7]pentacosa-1(23),2(7),3,5,13,17(25),20(24),21-octaene-12,15-dione]: the negative-log IC50 (pIC50) is 7.00 to 7.70 at ACLY [1] and no more than 4.30 on ACLY [2].

With `COc1ccc2cc1NS(=O)(=O)c1cc(cc(Cl)c1O)C(=O)OCCOc1ccccc1-2` [Compound 26, 15-chloro-16-hydroxy-21-methoxy-8,11-dioxa-18lambda6-thia-19-azatetracyclo[18.3.1.1^13,17.0^2,7]pentacosa-1(24),2,4,6,13,15,17(25),20,22-nonaene-12,18,18-trione], the pIC50 at ACLY [1] is greater than 7.70; on ACLY [2], 6.00 to 6.52.

Turning to `CN1CCc2ccccc2-c2cc(c(F)cc2F)NS(=O)(=O)c2cc(cc(Cl)c2O)C1=O` [Compound 71, 14-chloro-20,22-difluoro-15-hydroxy-10-methyl-17,17-dioxo-17λ6-thia-10,18-diazatetracyclo[17.3.1.112,16.02,7]tetracosa-1(22),2(7),3,5,12,14,16(24),19(23),20-nonaen-11-one], the pIC50 at ACLY [1] was greater than 7.70; on ACLY [2], no more than 4.30.

As to `O=C1OCCOc2ccccc2-c2ccc(F)c(c2F)NS(=O)(=O)c2cc1cc(Cl)c2O` [Compound 51, 15-chloro-21,24-difluoro-16-hydroxy-18,18-dioxo-8,11-dioxa-18λ6-thia-19-azatetracyclo[18.3.1.113,17.02,7]pentacosa-1(23),2(7),3,5,13(25),14,16,20(24),21-nonaen-12-one], the pIC50 was 5.00 to 7.00 at ACLY [1] and no more than 4.30 on ACLY [2].

(Values after US20250289793A1, “MACROCYCLIC INHIBITORS OF ATP CITRATE LYASE” (Esperion Therapeutics, Inc., priority 2022, published 2025).)
